Here are results for 1 compound from PMC12111156, “Nitazoxanide Analogs: Synthesis, In Vitro Giardicidal Activity, and Effects on Giardia lamblia Metabolic Gene Expression” (International Journal of Molecular Sciences, 2025).

The subject of this test is Giardia lamblia trophozoites (strain ATCC 30957) gene expression. The experiment in a line: Gene expression in trophozoites by RT-qPCR. It counts as cell-based. The settings on record: IC50 of each compound, 48 h. The method, then:
To determine the alterations in the parasite’s metabolism and cellular processes induced by the compounds, the expression levels of various genes encoding metabolic, structural, and oxidative stress response proteins were evaluated. G. lamblia strain ATCC 30957 was grown by following previously established culture parameters.
The culture tube was incubated on ice for 15 min and then centrifuged at 2000 rpm for 6 min to concentrate the cell pellet. Cell counting was performed using the trypan blue method. A 500 µL volume of Trizol ® was added, and it was gently homogenized; then, 60 µL of chloroform was added, and it was homogenized for 10 s with a vortex and incubated on ice for 3 min. Afterward, it was centrifuged at 12,000 rpm for 10 min, the aqueous phase was transferred to a new tube, 200 µL of isopropanol was added, and it was incubated for 3 h on ice. The sample was then centrifuged for 10 min at 12,000 rpm, and the supernatant was discarded. A 600 µL volume of ethanol (70%) was added, homogenized, and centrifuged. In the end, the supernatant was removed, and the sample was centrifuged again to dry the excess alcohol. The pellet was dried. Finally, it was resuspended in 25 µL of sterile MilliQ water. The concentration and purity of the extracted RNA were determined using the NanoDrop® Spectrophotometer ND-1000 (NanoDrop Technologies, Wilmington, DE, USA). […] RNA purity and integrity were confirmed using 0.8% (w/v) agarose gels under denaturing conditions.
The synthesis of cDNA was carried out with […] of purified RNA, and 1 U of […] was added (Thermo Thermo Fisher Scientific, Waltham, MA, USA). First-strand cDNA synthesis was carried out using 1 μg of DNase-treated RNA, combined with a 10 mM dNTP mix, oligo(dT)18 primer, and RevertAid reverse transcriptase (Thermo Scientific) in a final reaction volume of 20 μL. The reaction mixture was incubated at 42 °C for 60 min, followed by heat inactivation at 70 °C for 10 min. The synthesized cDNA was stored at −20 °C until further use. The level of purity and concentration of the cDNA were determined using the NanoDrop® Spectrophotometer ND-1000 (NanoDrop Technologies, Wilmington, DE, USA).
Specific oligonucleotides were designed to determine the expression levels of the gene’s phosphofructokinase, pyruvate kinase, glucose-6-phosphate dehydrogenase::6-phosphogluconolactonase, 6-phosphogluconate dehydrogenase, and transketolase. The design was based on gene sequences available in the National Center for Biotechnology Information (NCBI) database, adhering to the following criteria: an oligonucleotide length of 18–20 bp, a melting temperature (Tm) of 61 °C, a GC content of approximately 40%, and an amplicon size between 80 and 200 bp (Table 4). The oligonucleotides were synthesized by the Sequencing and Synthesis Unit of the Institute of Biotechnology, UNAM.
Additionally, previously reported primers that were used for the gene expression analysis of G. lamblia were also obtained (Table 4). These primers target genes encoding surface structural protein, giardin, actin, pyruvate:ferredoxin oxidoreductase, pyruvate phosphate dikinase, NADH oxidase, triose phosphate isomerase, glyceraldehyde-3-phosphate dehydrogenase, and Aldolase.
Amplification was performed using a StepOne™ Real-Time PCR System and the Fast SYBR® Green Master Mix kit (Applied Biosystems, Foster City, CA, USA) under the following conditions: an initial denaturation at 95 °C for 30 s, followed by 40 cycles of 95 °C for 3 s and 60 °C for 30 s. The melt curve analysis was conducted post-amplification by gradually increasing the temperature from 60 °C to 95 °C. […] Normalization was performed using the geometric mean of cycle threshold (Ct) values, and the relative expression levels of the target genes were calculated using the 2^−ΔΔCt method. Each reaction was performed in five replicates for all analyzed genes and strains. Results are presented as mean values ± standard deviation (SD).
(In general: Quantitative PCR measures a nucleic acid by following its amplification.)

SMILES strings stand for the structures.

With `CCCCC(=O)Nc1ncc([N+](=O)[O-])s1` [FLP-2, N-(5-Nitro-1,3-thiazol-2-yl)pentanamide], the “6PGDH gene expression vs control” value was “differential overexpression”; the “ACT (actin) gene expression, decrease vs control” value is 10 times; the “G6PD::6PGL gene expression vs control” value amounted to 117.4 fold change; the “GAPDH gene expression vs control” value is recorded as 18.3 fold change. The “GIA (giardin) gene expression, increase vs control” value came to 20.1 times; the “NADHox gene expression, increase vs control” value was “lower”; the “PFK gene expression vs control” value is given as “reduction”; the “PFOR gene expression vs control” value is 16 fold change. The “PPDK gene expression vs control” value amounted to 21.8 fold change; the “TKT gene expression, increase vs control” value came to 45.1 times; the “VSP gene expression, increase vs control” value is on record as 47.8 times.
